Data on 1 compound can be found in article PMC5218480 (PLoS ONE, 2017).

This test deals with MV-4-11 cells. Put plainly: Gene expression microarray analysis (Affymetrix PrimeView) and GSEA. The format is cell-based, human. Also on record: RFU PODN (11730768_x_at) / Fold change /veh PODN (11730768_x_at) / RFU LINC00158 (11744669_a_at) / Fold change /veh LINC00158 (11744669_a_at) / RFU DUSP10 (11751237_a_at) / Fold change /veh DUSP10 (11751237_a_at) / RFU ID3 (11757404_x_at) / Fold change /veh ID3 (11757404_x_at) / RFU PLEKHG5 (11737974_s_at) / Fold change /veh PLEKHG5 (11737974_s_at) / RFU LRRC4B (11730491_at) / Fold change /veh LRRC4B (11730491_at) / RFU GIMAP4 (11747438_a_at) / Fold change /veh GIMAP4 (11747438_a_at) / RFU KRT8 (11758183_x_at) / Fold change /veh KRT8 (11758183_x_at) / RFU CNN1 (11734310_a_at) / Fold change /veh CNN1 (11734310_a_at) / RFU VPS37D (11726825_at) / Fold change /veh VPS37D (11726825_at) / RFU C10orf10 (11716522_x_at) / Fold change /veh C10orf10 (11716522_x_at) / RFU KIR2DL2 /// KIR2DL4 /// KIR2DL5A /// KIR2DL5B /// KIR2DS1 /// KIR2DS2 /// KIR2DS3 /// KIR2DS4 /// KIR3DL3 /// KIR3DL3 /// KIR3DS1 (11738374_at) / Fold change /veh KIR2DL2 /// KIR2DL4 /// KIR2DL5A /// KIR2DL5B /// KIR2DS1 /// KIR2DS2 /// KIR2DS3 /// KIR2DS4 /// KIR3DL3 /// KIR3DL3 /// KIR3DS1 (11738374_at) / RFU C1QL1 (11718748_at) / Fold change /veh C1QL1 (11718748_at) / RFU TMPRSS4 (11747572_a_at) / Fold change /veh TMPRSS4 (11747572_a_at) / RFU HAMP (11756126_x_at) / Fold change /veh HAMP (11756126_x_at) / RFU RNFT2 (11725882_a_at) / Fold change /veh RNFT2 (11725882_a_at) / RFU NR4A2 (11747474_a_at) / Fold change /veh NR4A2 (11747474_a_at) / RFU ABCC12 (11746883_a_at) / Fold change /veh ABCC12 (11746883_a_at) / RFU TMEM136 (11760407_x_at) / Fold change /veh TMEM136 (11760407_x_at) / RFU CLDN22 /// WWC2 (11732394_at) / Fold change /veh CLDN22 /// WWC2 (11732394_at) / RFU HLA-DPB1 (11760878_x_at) / Fold change /veh HLA-DPB1 (11760878_x_at) / RFU SPINT1 (11716480_a_at) / Fold change /veh SPINT1 (11716480_a_at) / RFU GAP43 (11754022_s_at) / Fold change /veh GAP43 (11754022_s_at) / RFU A4GNT (11735810_at) / Fold change /veh A4GNT (11735810_at) / RFU PRB3 (11715151_x_at) / Fold change /veh PRB3 (11715151_x_at) / RFU TUBB4B (11761932_at) / Fold change /veh TUBB4B (11761932_at) / RFU CAPN14 (11732068_a_at) / Fold change /veh CAPN14 (11732068_a_at) / RFU TMCC2 (11721928_a_at) / Fold change /veh TMCC2 (11721928_a_at) / RFU IRGQ (11745062_a_at) / Fold change /veh IRGQ (11745062_a_at) / RFU FAM174B (11720279_a_at) / Fold change /veh FAM174B (11720279_a_at) / RFU TMPRSS4 (11748680_a_at) / Fold change /veh TMPRSS4 (11748680_a_at) / RFU FAM212B (11763350_a_at) / Fold change /veh FAM212B (11763350_a_at) / RFU PLEKHG5 (11743358_a_at) / Fold change /veh PLEKHG5 (11743358_a_at) / RFU ZSCAN30 (11745921_a_at) / Fold change /veh ZSCAN30 (11745921_a_at) / RFU CMKLR1 (11741424_a_at) / Fold change /veh CMKLR1 (11741424_a_at) / RFU LOC101060620 /// MAPK8IP1 (11723275_at) / Fold change /veh LOC101060620 /// MAPK8IP1 (11723275_at) / RFU SPTSSB (11747773_x_at) / Fold change /veh SPTSSB (11747773_x_at) / RFU PRSS12 (11739890_at) / Fold change /veh PRSS12 (11739890_at) / RFU BIN1 (11741810_x_at) / Fold change /veh BIN1 (11741810_x_at) / RFU WNT11 (11732464_a_at) / Fold change /veh WNT11 (11732464_a_at) / RFU C10orf10 (11716521_a_at) / Fold change /veh C10orf10 (11716521_a_at) / RFU C5orf56 (11738089_at) / Fold change /veh C5orf56 (11738089_at) / RFU CYB561 (11721691_x_at) / Fold change /veh CYB561 (11721691_x_at) / RFU ANKRD19P (11752326_a_at) / Fold change /veh ANKRD19P (11752326_a_at) / RFU OR2T12 /// OR2T33 /// OR2T8 (11738714_s_at) / Fold change /veh OR2T12 /// OR2T33 /// OR2T8 (11738714_s_at) / RFU VCAN (11748164_a_at) / Fold change /veh VCAN (11748164_a_at) / RFU JSRP1 (11732532_at) / Fold change /veh JSRP1 (11732532_at) / RFU KRTAP10-11 (11738290_x_at) / Fold change /veh KRTAP10-11 (11738290_x_at) / RFU MYO3A (11730013_a_at) / Fold change /veh MYO3A (11730013_a_at) / RFU EBF3 (11725865_a_at) / Fold change /veh EBF3 (11725865_a_at) / RFU CAMK2N1 (11719241_x_at) / Fold change /veh CAMK2N1 (11719241_x_at) / RFU C5orf56 (11738088_a_at) / Fold change /veh C5orf56 (11738088_a_at) / RFU OLFML3 (11715873_a_at) / Fold change /veh OLFML3 (11715873_a_at) / RFU LOC100653217 /// NTM (11731650_a_at) / Fold change /veh LOC100653217 /// NTM (11731650_a_at) / RFU MAPK11 (11762145_a_at) / Fold change /veh MAPK11 (11762145_a_at) / RFU FIZ1 (11724087_x_at) / Fold change /veh FIZ1 (11724087_x_at) / RFU OASL (11726364_x_at) / Fold change /veh OASL (11726364_x_at) / RFU SOX15 (11748057_x_at) / Fold change /veh SOX15 (11748057_x_at) / RFU CD79A (11719716_a_at) / Fold change /veh CD79A (11719716_a_at) / RFU HIST1H1D (11736915_at) / Fold change /veh HIST1H1D (11736915_at) / RFU CASKIN2 (11723855_a_at) / Fold change /veh CASKIN2 (11723855_a_at) / RFU LOC730098 (11760151_x_at) / Fold change /veh LOC730098 (11760151_x_at) / RFU OR4N2 (11742367_at) / Fold change /veh OR4N2 (11742367_at) / RFU PRRT2 (11749266_a_at) / Fold change /veh PRRT2 (11749266_a_at) / RFU SNX32 (11753110_a_at) / Fold change /veh SNX32 (11753110_a_at) / RFU CDHR5 (11726645_a_at) / Fold change /veh CDHR5 (11726645_a_at) / RFU RCAN1 (11760418_a_at) / Fold change /veh RCAN1 (11760418_a_at) / RFU FAM167A (11723789_a_at) / Fold change /veh FAM167A (11723789_a_at) / RFU FAM26E (11764081_at) / Fold change /veh FAM26E (11764081_at) / RFU ISYNA1 (11749810_s_at) / Fold change /veh ISYNA1 (11749810_s_at) / RFU ACY1 (11761880_at) / Fold change /veh ACY1 (11761880_at) / RFU 11764098_at / Fold change /veh 11764098_at / RFU SAMD14 (11745864_x_at) / Fold change /veh SAMD14 (11745864_x_at) / RFU NPB (11741838_a_at) / Fold change /veh NPB (11741838_a_at) / RFU TMPRSS6 (11731388_a_at) / Fold change /veh TMPRSS6 (11731388_a_at) / RFU KRTAP10-2 (11738614_at) / Fold change /veh KRTAP10-2 (11738614_at) / RFU ARHGAP8 /// PRR5-ARHGAP8 (11727945_x_at) / Fold change /veh ARHGAP8 /// PRR5-ARHGAP8 (11727945_x_at) / RFU KRTAP5-7 /// NADSYN1 (11734609_at) / Fold change /veh KRTAP5-7 /// NADSYN1 (11734609_at) / RFU RASL12 (11751679_a_at) / Fold change /veh RASL12 (11751679_a_at) / RFU CDKN2B (11736163_a_at) / Fold change /veh CDKN2B (11736163_a_at) / RFU PRF1 (11729649_at) / Fold change /veh PRF1 (11729649_at) / RFU, ZNF638 /// ZNF638-IT1 / Fold change vs veh, ZNF638 /// ZNF638-IT1 / RFU, PANK3 / Fold change vs veh, PANK3 / RFU, SH3YL1 / Fold change vs veh, SH3YL1 / RFU, ZEB2 / Fold change vs veh, ZEB2 / RFU, NRIP1 / Fold change vs veh, NRIP1 / RFU, PTTG1IP / Fold change vs veh, PTTG1IP / RFU, CAPN2 / Fold change vs veh, CAPN2 / RFU, MED14 / Fold change vs veh, MED14 / RFU, SNORA58 / Fold change vs veh, SNORA58 / RFU, C1orf63 / Fold change vs veh, C1orf63 / RFU, LRRFIP1 / Fold change vs veh, LRRFIP1 / RFU, NDUFAF7 / Fold change vs veh, NDUFAF7 / RFU, SLC12A2 / Fold change vs veh, SLC12A2 / RFU, IBTK / Fold change vs veh, IBTK / RFU, ESF1 / Fold change vs veh, ESF1 / Fold change vs veh, TMEM50B / RFU, TAOK1 / Fold change vs veh, TAOK1 / RFU, ACBD3 / Fold change vs veh, ACBD3 / RFU, TMA16 / Fold change vs veh, TMA16 / RFU, RWDD3 / Fold change vs veh, RWDD3 / RFU, BCAT1 / Fold change vs veh, BCAT1 / RFU, EDEM3 / Fold change vs veh, EDEM3 / RFU, TMEM33 / Fold change vs veh, TMEM33 / RFU, WDR75 / Fold change vs veh, WDR75 / RFU, AHCTF1 / Fold change vs veh, AHCTF1 / RFU, TFRC / Fold change vs veh, TFRC / RFU, ZDHHC17 / Fold change vs veh, ZDHHC17 / RFU, NOM1 / Fold change vs veh, NOM1 / RFU, ARL8B / Fold change vs veh, ARL8B / RFU, ZBTB11 / Fold change vs veh, ZBTB11 / RFU, TAMM41 / Fold change vs veh, TAMM41 / RFU, KIAA1704 /// LOC100996395 / Fold change vs veh, KIAA1704 /// LOC100996395 / RFU, ING1 / Fold change vs veh, ING1 / RFU, TRMT61B / Fold change vs veh, TRMT61B / RFU, FUBP3 / Fold change vs veh, FUBP3 / RFU, TP53 / Fold change vs veh, TP53 / RFU, TNKS2 / Fold change vs veh, TNKS2 / RFU, ZFP14 / Fold change vs veh, ZFP14 / RFU, ACTR2 / Fold change vs veh, ACTR2 / RFU, PPP3R1 / Fold change vs veh, PPP3R1 / RFU, PIK3R1 / Fold change vs veh, PIK3R1 / RFU, HNRNPA1 / Fold change vs veh, HNRNPA1 / RFU, RNF170 / Fold change vs veh, RNF170 / RFU, ZNF28 / Fold change vs veh, ZNF28 / RFU, RNGTT / Fold change vs veh, RNGTT / RFU, OGT / Fold change vs veh, OGT / RFU, BRD1 / Fold change vs veh, BRD1 / RFU, MARS / Fold change vs veh, MARS / RFU, ZNF655 / Fold change vs veh, ZNF655 / RFU, FAHD1 / Fold change vs veh, FAHD1 / RFU, BDP1 / Fold change vs veh, BDP1 / RFU, LRRCC1 / Fold change vs veh, LRRCC1 / RFU, ARID1A / Fold change vs veh, ARID1A / RFU, ZNF146 / Fold change vs veh, ZNF146 / RFU, ZNF330 / Fold change vs veh, ZNF330 / RFU, GPN3 / Fold change vs veh, GPN3 / RFU, C9orf123 / Fold change vs veh, C9orf123 / RFU, N4BP2L2 / Fold change vs veh, N4BP2L2 / RFU, ARFIP1 / Fold change vs veh, ARFIP1 / RFU, FAM179B / Fold change vs veh, FAM179B / RFU, BCL10 / Fold change vs veh, BCL10 / RFU, UHRF1BP1L / Fold change vs veh, UHRF1BP1L / RFU, BET1 / Fold change vs veh, BET1 / RFU, CNOT2 / Fold change vs veh, CNOT2 / RFU, ZNF268 / Fold change vs veh, ZNF268 / Fold change vs veh, ZNF507 / RFU, DGCR2 / Fold change vs veh, DGCR2 / RFU, WDSUB1 / Fold change vs veh, WDSUB1 / Fold change vs veh, HSP90B1 /// MIR3652 / RFU, ADSS / Fold change vs veh, ADSS / RFU, GK / Fold change vs veh, GK / RFU, ZNF148 / Fold change vs veh, ZNF148 / RFU, TAF9 / Fold change vs veh, TAF9 / RFU, SLC1A5 / Fold change vs veh, SLC1A5 / RFU, SLMO2 / Fold change vs veh, SLMO2 / RFU, ABCC4 / Fold change vs veh, ABCC4 / RFU, LOC101060439 /// RAP1B / Fold change vs veh, LOC101060439 /// RAP1B / RFU, RFX7 / Fold change vs veh, RFX7 / RFU, GTPBP10 / Fold change vs veh, GTPBP10 / RFU, CNEP1R1 / Fold change vs veh, CNEP1R1 / RFU, BIVM-ERCC5 /// ERCC5 / Fold change vs veh, BIVM-ERCC5 /// ERCC5 / RFU, ILF3 / Fold change vs veh, ILF3 / RFU 11762660_at / Fold change /veh 11762660_at / RFU VCAN (11757783_s_at) / Fold change /veh VCAN (11757783_s_at) / RFU DDX43 (11728927_at) / Fold change /veh DDX43 (11728927_at) / RFU KRT8 (11758188_x_at) / Fold change /veh KRT8 (11758188_x_at) / RFU NKD1 (11759106_at) / Fold change /veh NKD1 (11759106_at) / RFU SRD5A1 (11742802_a_at) / Fold change /veh SRD5A1 (11742802_a_at) / RFU TPSAB1 /// TPSB2 (11721975_s_at) / Fold change /veh TPSAB1 /// TPSB2 (11721975_s_at) / RFU GSTM3 (11746129_a_at) / Fold change /veh GSTM3 (11746129_a_at) / RFU IL23R (11737362_x_at) / Fold change /veh IL23R (11737362_x_at) / RFU TMEM51 (11727254_a_at) / Fold change /veh TMEM51 (11727254_a_at) / RFU PIWIL2 (11732686_x_at) / Fold change /veh PIWIL2 (11732686_x_at) / RFU ORM1 (11744905_x_at) / Fold change /veh ORM1 (11744905_x_at) / RFU CCDC152 (11743942_at) / Fold change /veh CCDC152 (11743942_at) / RFU ECM1 (11717891_a_at) / Fold change /veh ECM1 (11717891_a_at) / RFU IL23R (11748794_a_at) / Fold change /veh IL23R (11748794_a_at) / RFU TNFAIP8L3 (11732012_x_at) / Fold change /veh TNFAIP8L3 (11732012_x_at) / RFU MBOAT4 (11741988_at) / Fold change /veh MBOAT4 (11741988_at) / RFU 11764193_at / Fold change /veh 11764193_at / RFU TMEM53 (11763286_at) / Fold change /veh TMEM53 (11763286_at) / RFU MAGEB2 (11727129_at) / Fold change /veh MAGEB2 (11727129_at) / RFU TMEM200A (11744735_a_at) / Fold change /veh TMEM200A (11744735_a_at) / RFU CCDC152 (11751479_a_at) / Fold change /veh CCDC152 (11751479_a_at) / RFU FAM211A (11726209_a_at) / Fold change /veh FAM211A (11726209_a_at) / RFU RGS16 (11746705_a_at) / Fold change /veh RGS16 (11746705_a_at) / RFU VCAN (11755009_s_at) / Fold change /veh VCAN (11755009_s_at) / RFU RHOB (11743442_s_at) / Fold change /veh RHOB (11743442_s_at) / RFU RGS16 (11720943_a_at) / Fold change /veh RGS16 (11720943_a_at) / RFU RGS16 (11720944_at) / Fold change /veh RGS16 (11720944_at) / RFU, VPS4B / Fold change vs veh, VPS4B / RFU, CREB1 / Fold change vs veh, CREB1 / RFU, DNAJC13 / Fold change vs veh, DNAJC13 / RFU, GNAQ / Fold change vs veh, GNAQ / RFU, CDK5R1 / Fold change vs veh, CDK5R1 / RFU, ZRANB3 / Fold change vs veh, ZRANB3 / RFU, CUL4A / Fold change vs veh, CUL4A / RFU, CCNY / Fold change vs veh, CCNY / RFU, UFL1 / Fold change vs veh, UFL1 / RFU, COG3 / Fold change vs veh, COG3 / RFU, DIAPH2 / Fold change vs veh, DIAPH2 / RFU, SKA2 / Fold change vs veh, SKA2 / RFU, AFF3 / Fold change vs veh, AFF3 / RFU, LMF1 / Fold change vs veh, LMF1 / RFU, IPO11 / Fold change vs veh, IPO11 / RFU, DFFB / Fold change vs veh, DFFB / RFU, FOXP1 / Fold change vs veh, FOXP1 / RFU, CARD8 / Fold change vs veh, CARD8 / RFU, STRN3 / Fold change vs veh, STRN3 / RFU, ADK / Fold change vs veh, ADK / RFU, RASSF2 / Fold change vs veh, RASSF2 / RFU, WIPF1 / Fold change vs veh, WIPF1 / RFU, LARP1B / Fold change vs veh, LARP1B / RFU, RASA1 / Fold change vs veh, RASA1 / RFU, RB1 / Fold change vs veh, RB1 / RFU, PPFIA1 / Fold change vs veh, PPFIA1 / RFU, MAT2A / Fold change vs veh, MAT2A / RFU, CCT5 / Fold change vs veh, CCT5 / RFU, WDR92 / Fold change vs veh, WDR92 / RFU, CUX1 / Fold change vs veh, CUX1 / RFU, TTC7A / Fold change vs veh, TTC7A / RFU, TMEM135 / Fold change vs veh, TMEM135 / RFU, DEPTOR / Fold change vs veh, DEPTOR / RFU, CPM / Fold change vs veh, CPM / RFU, DNAJB6 / Fold change vs veh, DNAJB6 / RFU, CACNA2D3 / Fold change vs veh, CACNA2D3 / RFU, DTX4 / Fold change vs veh, DTX4 / RFU, TFCP2 / Fold change vs veh, TFCP2 / RFU, GMCL1 /// GMCL1P1 / Fold change vs veh, GMCL1 /// GMCL1P1 / RFU, AEBP2 / Fold change vs veh, AEBP2 / RFU, SNHG1 /// SNORD22 /// SNORD25 /// SNORD26 /// SNORD27 /// SNORD28 /// SNORD29 /// SNORD31 / Fold change vs veh, SNHG1 /// SNORD22 /// SNORD25 /// SNORD26 /// SNORD27 /// SNORD28 /// SNORD29 /// SNORD31 / Fold change (Aza/veh), C12orf56 (ProbeSet 11735607_a_at) / Fold change (ACY-1035/veh), C12orf56 (ProbeSet 11735607_a_at) / Fold change (Aza/veh), FGFR1OP (ProbeSet 11751329_s_at) / Fold change (ACY-1035/veh), FGFR1OP (ProbeSet 11751329_s_at) / Fold change (Aza/veh), VPS36 (ProbeSet 11739960_a_at) / Fold change (ACY-1035/veh), VPS36 (ProbeSet 11739960_a_at) / RFU SYPL1 (11715823_x_at) / Fold change /veh SYPL1 (11715823_x_at) / RFU IGFBP7 (11715501_s_at) / Fold change /veh IGFBP7 (11715501_s_at) / RFU REEP3 (11722064_at) / Fold change /veh REEP3 (11722064_at) / RFU IGLL1 (11728026_x_at) / Fold change /veh IGLL1 (11728026_x_at): dose or concentration left out as unconfirmed. As to conditions: MV-4-11 cells, 48 hours.

In the case of `Nc1ncn([C@@H]2O[C@H](CO)[C@@H](O)[C@H]2O)c(=O)n1` [azacitidine], the “RFU TMCC2 (11721928_a_at)” value was 12.72 RFU.
